Measurements from patent US20220304945A1, “METHODS OF TREATING METABOLIC SYNDROME RELATED CONDITIONS USING RETINOIC ACID RECEPTOR AGONISTS” (Cornell University, priority 2014, published 2022).
Entries after “also recorded” stand apart in the source; their conditions may differ.

Key:
Type in all cases: in vivo, mouse
[1] = HPLC analysis of serum and liver retinoids, HF-fed mice; conditions: for liver retinyl palmitate and retinol compared to controls: HF diet mice vs control diet
From the text: (§1) Mice, diet, and drug treatment. WT male C57/BL6 male mice were maintained on either a standard laboratory chow-fed diet (CFD) with 13% kcal fat, (diet #5053, Lab Diet, Inc, St. Louis, Mo.) or a high fat, western style diet (HFD) with 60% kcals from fat, (diet #58126, Lab Diet, Inc., St. Louis, Mo.) for 4 months. One month after the start of the high fat diet treatment, the high fat diet group was further split into 2 groups for 3 months: i) high fat diet and the drinking water containing 1% DMSO; ii) high fat diet and the drinking water containing 1.5 mg/100 ml AC261066, a specific RARβ agonist. Then mice were sacrificed by cervical dislocation. Blood and various tissue samples were harvested.
(§2) Analysis of serum and liver retinoids. The frozen liver tissue samples (˜100 mg) were homogenized in 500 μl cold phosphate-buffered saline (PBS). In addition, 100 μl serum was diluted in cold PBS to total volume of 500 μl. Retinyl acetate was added to each sample before the retinoid extraction for the calculation of extraction efficiency. The retinoids were extracted into 350 μl of organic solution (acetonitrile/butanol, 50:50, v/v) in the dark. The high performance liquid chromatography (HPLC) was performed using a Waters Millennium system (Waters). Each sample (100 μl of the 350 μl) was loaded onto an analytical 5-μm reverse phase C18 column (Vydac, Hesperia, Calif.) and eluted at a flow rate of 1.5 ml/min. Two mobile phase gradient systems were used. Retinoids were identified by HPLC based on two criteria: an exact match of the retention times of unknown peaks with those of authentic retinoid standards and identical UV light spectra (220-400 nm) of unknowns against spectra from authentic retinoid standards during HPLC by the use of a photodiode array detector. The amounts of retinoids were calculated from the areas under the peaks detected at the wave-length of 325 nm. The levels of retinol and retinyl esters were normalized to the tissue weight.
as §2, with “Millenium” for “Millennium”

HF-fed C57/BL6 mice = assay: Renal lipid accumulation: H and E and oil red O staining of kidney, HF-fed mice; conditions: HF diet mice 4 months; vs HF-vehicle
From the text: as §1
Hematoxylin and Eosin Staining. At sacrifice, fresh mouse liver samples were fixed in 4% formaldehyde solution for 24 hr and embedded in paraffin blocks. Kidney paraffin sections were cut 5 microns thick and mounted on glass slides and stained with hematoxylin and eosin (H and E) using standard protocols.
Combined oil red O and Immunofluorescence staining. Fresh mouse kidney samples were embedded in optimal cutting temperature (OCT) medium and immediately frozen to −70 centigrade. Cryosections were then fixed in 4% formaldehyde for 1 hr at room temp. Slides were then rinsed three times in deionized water (dH2O) for 30 s, followed by treatment with 0.5% Triton X-100 in PBS for 5 min. Sections were then washed three times with PBS for 5 min. Samples were with incubated 2% bovine serum albumin (BSA) for 30 min at room temperature to block for unspecific antibody binding. Following blocking, sections were washed three times in PBS and incubated with mouse monoclonal antibody against α-SMA (1:500) (Dako, Inc) for 24 h at 4° C. After 24 h sections were washed three times in PB and incubated with Alexa-Flour-488 anti-mouse secondary anti-body (1:500) (Invitrogen, Inc) for 30 min at room temperature. Sections were then washed three times in PBS and incubated with working strength oil-red O solution for 30 minutes at room temperature. […]

[2] = Serum triglyceride and cholesterol level measurements, HFD-fed mice (Examples 11-15); conditions: mice fed HFD 4 months, drug in drinking water (AC261066 1.5 mg/100 ml)
Experimental: AC261066(Lund et al., Discovery of a potent, orally available, and isoform-selective retinoic acid beta2 receptor agonist. J Med Chem. 2005; 48(24):7517-9) and CD1530 (Thacher et al. Therapeutic applications for ligands of retinoid receptors. Curr Pharm Des. 2000; 6(1):25-58) was dissolved in dimethyl sulfoxide (DMSO) at the concentration of 1.5 mg/ml for AC261066 and 2.5 mg/ml for CD1530, and diluted in the drinking water for mice to the final concentration of 1.5 mg/100 ml and 2.5 mg/100 ml, respectively.
WT male C57/BL6 male mice were maintained on either a standard laboratory chow-fed diet (Con) with 13% kcal fat, (diet #5053, Lab Diet, Inc, St. Louis, Mo.) or a high fat, western style diet (HFD) with 45% kcals from fat, (diet #58126, Lab Diet, Inc., St. Louis, Mo.) for 4 months. One month after the start of the HFD treatment, the HFD group was further split into 3 groups for 3 months: i) HFD and the drinking water containing 1% DMSO; ii) high fat diet (HFD) and drinking water containing 1.5 mg/100 ml AC261066, a specific RARβ agonist in 1% DMSO or iii) HFD and drinking water containing 1.5 mg/100 ml CD1530, a specific RARγ agonist in 1% DMSO. Then mice were sacrificed by cervical dislocation. Blood and various tissue samples were harvested.
The analysis of serum triglyceride levels was carried out using a bichromatic assay at the Laboratory of Comparative Pathology of the Memorial Sloan-Kettering Cancer Center. Chow-fed diet (Con) n=4; high fat diet (HFD) n=4; high fat diet (HFD)+AC261066 n=4; and high fat diet (HFD)+CD1530, n=4.

SMILES | retinyl palmitate in liver, lower than HF-vehicle treated mice ([1]; HF diet mice) [%] | liver retinyl palmitate and retinol compared to controls [1] | renal lipid accumulation (H and E) (HF-fed C57/BL6 mice) | serum cholesterol [2] | serum triglycerides [2] | retinyl palmitate in liver, higher than HF-vehicle treated mice ([1]; HF diet mice) [%] | vitamin A deficiency (VA depletion) in liver ([1]; HF diet mice) | renal lipid accumulation (oil red O) (HF-fed C57/BL6 mice)
O=C(O)c1ccc(-c2ccc3cc(O)c(C45CC6CC(CC(C6)C4)C5)cc3c2)cc1 [CD1530] | ~48 | significantly lowered | no decrease | no decrease | no decrease | – | – | –
CCCCOCCOc1nc(-c2ccc(C(=O)O)c(F)c2)sc1C [AC261066] | – | significantly lowered | diminished; also recorded: markedly decreased | greatly reduces; also recorded: significantly lower | greatly reduces; also recorded: significantly lower | 55 | partially reverses | marked diminished; also recorded: comparably less
